Assay results published in BigSolDB 2.1.

CCN(CC)CCNC(=O)c1c(C)[nH]c(/C=C2\C(=O)Nc3ccc(F)cc32)c1C.O=C(O)C[C@H](O)C(=O)O
Details	solubility (mole fraction)
in PEG-400, 298.2 K	0.00634
in PEG-400, 303.2 K	0.0076
in PEG-400, 308.2 K	0.00996
in PEG-400, 313.2 K	0.0129
in PEG-400, 318.2 K	0.0167

solubility (mole fraction)
Details	in ethanol	in ethylene glycol	in isopropanol	in propylene glycol	in transcutol	in water
298.2 K	0.00277	0.00104	0.00634	0.00179	0.00997	3.72e-06
303.2 K	0.00321	0.00139	0.0076	0.00228	0.0117	4.74e-06
308.2 K	0.00372	0.00186	0.00996	0.00303	0.0136	6.09e-06
313.2 K	0.0043	0.00244	0.0129	0.00385	0.0163	8.46e-06
318.2 K	0.00516	0.00313	0.0167	0.00483	0.0187	1.05e-05
